Laboratory results as given in ChEMBL document CHEMBL6083183, “Discovery and Hit to Lead Optimization of Macrocyclic Peptides as Novel Tropomyosin Receptor Kinase A Antagonists” (J Med Chem, 2024).
pIC50, pKd: −log10 of the molar value. Active and inactive are the calls of the source. The calls are words filed in the database; no cut-off is given here. Bridge positions count the residues as written; N and C are the ends. Square brackets hold non-standard residues; d marks the D form. Peptide text beside a SMILES is read from it. NMeY = CN[C@@H](Cc1ccc(O)cc1)C(=O)O; NMeF = CN[C@@H](Cc1ccccc1)C(=O)O; NMeN = CN[C@@H](CC(N)=O)C(=O)O; NMeL = CN[C@@H](CC(C)C)C(=O)O; NMeS = CN[C@@H](CO)C(=O)O; Sar = CNCC(=O)O

Columns and labels:
[1] = molecular target: T1, High affinity nerve growth factor receptor (Homo sapiens, UniProt P04629); experiment: Inhibition of human TrkA assessed as beta-galactosidase activity pretreated with NGF followed by […] and measured after 180 mins by pathhunter assay
T1 sequence (P04629 whole entry): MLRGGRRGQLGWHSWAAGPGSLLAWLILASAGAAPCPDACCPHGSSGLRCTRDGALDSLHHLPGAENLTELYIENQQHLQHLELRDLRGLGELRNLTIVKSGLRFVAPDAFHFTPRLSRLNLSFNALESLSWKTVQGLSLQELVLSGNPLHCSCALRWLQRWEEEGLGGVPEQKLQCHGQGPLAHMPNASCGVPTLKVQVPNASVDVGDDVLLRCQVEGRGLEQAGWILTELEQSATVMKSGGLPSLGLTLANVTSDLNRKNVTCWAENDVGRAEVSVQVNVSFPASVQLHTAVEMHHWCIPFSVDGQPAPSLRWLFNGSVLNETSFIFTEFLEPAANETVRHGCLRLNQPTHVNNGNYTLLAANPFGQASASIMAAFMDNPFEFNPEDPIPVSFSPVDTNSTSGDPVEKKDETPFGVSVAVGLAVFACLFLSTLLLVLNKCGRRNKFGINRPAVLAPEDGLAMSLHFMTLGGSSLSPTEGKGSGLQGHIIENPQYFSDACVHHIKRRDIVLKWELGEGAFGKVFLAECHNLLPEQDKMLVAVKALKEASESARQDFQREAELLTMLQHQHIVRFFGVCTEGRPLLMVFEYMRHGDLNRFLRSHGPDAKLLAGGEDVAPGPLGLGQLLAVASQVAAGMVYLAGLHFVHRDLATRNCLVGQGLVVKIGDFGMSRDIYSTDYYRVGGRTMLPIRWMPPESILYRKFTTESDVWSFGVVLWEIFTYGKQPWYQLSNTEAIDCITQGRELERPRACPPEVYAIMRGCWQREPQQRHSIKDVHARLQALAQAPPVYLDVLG

[2] = Stability in rat serum assessed as half-life incubated for 22 to 24 hrs by LC-MS/MS method; type: ADME, cell-free; details: time 22-24 hrs
[3] = Stability in human serum assessed as half-life incubated for 22 to 24 hrs by LC-MS/MS method; type: ADME, cell-free; details: time 22-24 hrs
[4] = Total clearance in Sprague-Dawley rat at 1 umol/kg, iv administered as cassette dose measured upto 6 hrs by LC-MS/MS method; type: ADME, organism-based; details: in vivo, dose 1 µmol/kg
[5] = AUC in Sprague-Dawley rat at 1 umol/kg, iv administered as cassette dose measured upto 6 hrs by LC-MS/MS method; type: ADME, organism-based; details: in vivo, dose 1 µmol/kg
[6] = molecular target: T1, High affinity nerve growth factor receptor; experiment: Binding affinity to Fc-tagged human TrkA extracellular domain by SPR method
Homo sapiens = species: Homo sapiens; experiment: Inhibition of Fc-tagged human TrkA extracellular domain to biotinylated human NGF protein-protein interaction preincubated for 1 hr followed by NGF addition and measured after 3 hrs by ELISA; details: time 4.0 hrs
Rattus norvegicus = experiment: Analgesic activity in iv dosed rat Brennan's incision pain model assessed as reduction in pain measured after 15 mins; type: functional, organism-based; details: dose 0.5-1 mg/kg

With `CC(C)C[C@@H]1NC(=O)[C@H](CC(N)=O)NC(=O)CNC(=O)[C@H](Cc2ccccc2)N(C)C(=O)CNC(=O)[C@H](Cc2c[nH]c3ccccc23)NC(=O)[C@H](Cc2ccc(O)cc2)NC(=O)[C@H](CO)NC(=O)[C@H](C(C)C)NC(=O)[C@H](CO)NC(=O)[C@H](CO)NC(=O)[C@H](Cc2ccccc2)NC(=O)CSC[C@@H](C(=O)NCC(N)=O)NC(=O)[C@H](Cc2c[nH]cn2)NC(=O)[C@H](CC(N)=O)NC(=O)[C@H](Cc2ccc(O)cc2)NC(=O)[C@H](Cc2c[nH]c3ccccc23)NC(=O)[C@H](C(C)C)NC1=O` ({CH2CO}-FSSVSYWG[NMeF]GNLVWYNHCG-NH2; thioether N-18) the pIC50 [1] was 7.39.

`CC(C)C[C@@H]1NC(=O)[C@H](CCCNC(=N)N)NC(=O)CNC(=O)[C@H](Cc2ccccc2)N(C)C(=O)CNC(=O)[C@H](Cc2c[nH]c3ccccc23)NC(=O)[C@H](Cc2ccc(O)cc2)NC(=O)[C@H](CCC(=O)O)NC(=O)[C@H](C(C)C)NC(=O)[C@H](CO)NC(=O)[C@H](CCCCN)NC(=O)[C@H](Cc2ccccc2)NC(=O)CSC[C@@H](C(=O)N(C)CC(N)=O)NC(=O)[C@H](Cc2c[nH]cn2)NC(=O)[C@H](CC(=O)O)NC(=O)[C@H](Cc2ccc(O)cc2)NC(=O)[C@H](Cc2ccc(O)cc2)NC(=O)[C@H](CCCCN)NC1=O` ({CH2CO}-FKSVEYWG[NMeF]GRLKYYDHC[Sar]-NH2; thioether N-18) gave a half-life [2] of 32 h, a pIC50 [1] of 7.46 and a half-life [3] of 2.5 h.

`CC(C)C[C@H]1C(=O)N[C@@H](C(C)C)C(=O)N[C@@H](Cc2c[nH]c3ccccc23)C(=O)N[C@@H](Cc2ccc(O)cc2)C(=O)N[C@@H](CC(N)=O)C(=O)N[C@@H](Cc2c[nH]cn2)C(=O)N[C@H](C(=O)NCC(N)=O)CSCC(=O)N[C@@H](Cc2ccccc2)C(=O)N[C@@H](CO)C(=O)N[C@@H](CO)C(=O)N[C@@H](C(C)C)C(=O)N[C@@H](CO)C(=O)N[C@@H](Cc2ccc(O)cc2)C(=O)N[C@@H](Cc2c[nH]c3ccccc23)C(=O)NCC(=O)N(C)[C@@H](Cc2ccccc2)C(=O)NCC(=O)N[C@@H](CC(N)=O)C(=O)N1C` ({CH2CO}-FSSVSYWG[NMeF]GN[NMeL]VWYNHCG-NH2; thioether N-18) gave a pIC50 [1] of 7.09.

`CC(C)C[C@@H]1NC(=O)[C@H](CC(N)=O)NC(=O)CNC(=O)[C@H](Cc2ccccc2)N(C)C(=O)CNC(=O)[C@H](Cc2c[nH]c3ccccc23)NC(=O)[C@H](Cc2ccc(O)cc2)NC(=O)[C@H](CO)NC(=O)[C@H](C(C)C)NC(=O)[C@H](CO)NC(=O)[C@H](CO)NC(=O)[C@H](Cc2ccccc2)NC(=O)CSC[C@@H](C(=O)NCC(N)=O)NC(=O)[C@H](Cc2cnc[nH]2)NC(=O)[C@H](CC(=O)O)NC(=O)[C@H](Cc2ccc(O)cc2)NC(=O)[C@H](Cc2ccc(O)cc2)NC(=O)[C@H](C(C)C)NC1=O` ({CH2CO}-FSSVSYWG[NMeF]GNLVYYDHCG-NH2; thioether N-18) showed a pIC50 [1] of 7.62.

For `CC(C)C[C@@H]1NC(=O)[C@H](CC(N)=O)NC(=O)CNC(=O)[C@H](Cc2ccccc2)N(C)C(=O)CNC(=O)[C@H](Cc2c[nH]c3ccccc23)NC(=O)[C@H](Cc2ccc(O)cc2)N(C)C(=O)[C@H](CO)NC(=O)[C@H](C(C)C)NC(=O)[C@H](CO)NC(=O)[C@H](CO)NC(=O)[C@H](Cc2ccccc2)NC(=O)CSC[C@@H](C(=O)NCC(N)=O)NC(=O)[C@H](Cc2c[nH]cn2)NC(=O)[C@H](CC(N)=O)NC(=O)[C@H](Cc2ccc(O)cc2)NC(=O)[C@H](Cc2c[nH]c3ccccc23)NC(=O)[C@H](C(C)C)NC1=O` ({CH2CO}-FSSVS[NMeY]WG[NMeF]GNLVWYNHCG-NH2; thioether N-18), the pIC50 [1] was 7.66.

Molecule `CC(C)C[C@@H]1NC(=O)[C@H](CC(N)=O)NC(=O)CNC(=O)[C@H](Cc2ccccc2)N(C)C(=O)CNC(=O)[C@H](Cc2c[nH]c3ccccc23)NC(=O)[C@H](Cc2ccc(O)cc2)NC(=O)[C@H](CO)NC(=O)[C@H](C(C)C)NC(=O)[C@H](CO)NC(=O)[C@H](CO)NC(=O)[C@H](Cc2ccccc2)NC(=O)CSC[C@@H](C(=O)NCC(N)=O)NC(=O)[C@H](Cc2c[nH]cn2)NC(=O)[C@H](CO)NC(=O)[C@H](Cc2ccc(O)cc2)NC(=O)[C@H](Cc2ccc(O)cc2)NC(=O)[C@H](C(C)C)NC1=O` ({CH2CO}-FSSVSYWG[NMeF]GNLVYYSHCG-NH2; thioether N-18) has a pIC50 [1] of 6.73.

For `CC(C)C[C@@H]1NC(=O)[C@H](CC(N)=O)NC(=O)CNC(=O)[C@H](Cc2ccccc2)N(C)C(=O)CNC(=O)[C@H](Cc2c[nH]c3ccccc23)NC(=O)[C@H](Cc2ccc(O)cc2)NC(=O)[C@H](CO)NC(=O)[C@H](C(C)C)NC(=O)[C@H](CO)NC(=O)[C@H](CO)NC(=O)[C@H](Cc2ccccc2)NC(=O)CSC[C@@H](C(=O)NCC(N)=O)NC(=O)[C@H](Cc2c[nH]cn2)NC(=O)[C@H](CC(N)=O)N(C)C(=O)[C@H](Cc2ccc(O)cc2)NC(=O)[C@H](Cc2c[nH]c3ccccc23)NC(=O)[C@H](C(C)C)NC1=O` ({CH2CO}-FSSVSYWG[NMeF]GNLVWY[NMeN]HCG-NH2; thioether N-18), the pIC50 [1] was 7.32.

`CC(C)C[C@@H]1NC(=O)[C@H](CC(N)=O)NC(=O)CNC(=O)[C@H](Cc2ccccc2)N(C)C(=O)CNC(=O)[C@H](Cc2c[nH]c3ccccc23)NC(=O)[C@H](Cc2ccc(O)cc2)NC(=O)[C@H](CO)NC(=O)[C@H](C(C)C)NC(=O)[C@H](CO)NC(=O)[C@H](CO)NC(=O)[C@H](Cc2ccccc2)NC(=O)CSC[C@@H](C(=O)NCC(N)=O)NC(=O)[C@H](Cc2c[nH]cn2)NC(=O)[C@H](CC(N)=O)NC(=O)[C@H](Cc2ccc(O)cc2)NC(=O)[C@H](Cc2ccc(O)cc2)NC(=O)[C@H](C(C)C)NC1=O` ({CH2CO}-FSSVSYWG[NMeF]GNLVYYNHCG-NH2; thioether N-18) showed a pIC50 [1] of 8.22.

For `CC(C)C[C@@H]1NC(=O)[C@H](CC(N)=O)NC(=O)CNC(=O)[C@H](Cc2ccccc2)N(C)C(=O)CNC(=O)[C@H](Cc2c[nH]c3ccccc23)NC(=O)[C@H](Cc2ccc(O)cc2)NC(=O)[C@H](CO)NC(=O)[C@H](C(C)C)NC(=O)[C@H](CO)NC(=O)[C@H](CO)N(C)C(=O)[C@H](Cc2ccccc2)NC(=O)CSC[C@@H](C(=O)NCC(N)=O)NC(=O)[C@H](Cc2c[nH]cn2)NC(=O)[C@H](CC(N)=O)NC(=O)[C@H](Cc2ccc(O)cc2)NC(=O)[C@H](Cc2c[nH]c3ccccc23)NC(=O)[C@H](C(C)C)NC1=O` ({CH2CO}-F[NMeS]SVSYWG[NMeF]GNLVWYNHCG-NH2; thioether N-18), the pIC50 [1] was 7.89.

`CC(C)C[C@@H]1NC(=O)[C@H](CC(N)=O)NC(=O)CNC(=O)[C@H](Cc2ccccc2)N(C)C(=O)CNC(=O)[C@H](Cc2c[nH]c3ccccc23)NC(=O)[C@H](Cc2ccc(O)cc2)NC(=O)[C@H](C)NC(=O)[C@H](C(C)C)NC(=O)[C@H](CO)NC(=O)[C@H](CO)NC(=O)[C@H](Cc2ccccc2)NC(=O)CSC[C@@H](C(=O)NCC(N)=O)NC(=O)[C@H](Cc2c[nH]cn2)NC(=O)[C@H](CC(N)=O)NC(=O)[C@H](Cc2ccc(O)cc2)NC(=O)[C@H](Cc2ccc(O)cc2)NC(=O)[C@H](C(C)C)NC1=O` ({CH2CO}-FSSVAYWG[NMeF]GNLVYYNHCG-NH2; thioether N-18) showed a pIC50 [1] of 7.59.

Work on `CC[C@H](C)[C@@H]1NC(=O)CNC(=O)[C@H](Cc2ccccc2)N(C)C(=O)CNC(=O)[C@H](Cc2c[nH]c3ccccc23)NC(=O)[C@H](Cc2ccc(O)cc2)NC(=O)[C@H](CCC(=O)O)NC(=O)[C@H](C(C)C)NC(=O)[C@H](CO)NC(=O)[C@H](CO)NC(=O)[C@H](Cc2ccccc2)NC(=O)CSC[C@@H](C(=O)NCC(N)=O)NC(=O)[C@H](Cc2cnc[nH]2)NC(=O)[C@H](CC(=O)O)NC(=O)[C@H](Cc2ccc(O)cc2)NC(=O)[C@H](Cc2c[nH]c3ccccc23)NC(=O)[C@H](CCC(=O)O)NC(=O)[C@H](CC(C)C)NC1=O` ({CH2CO}-FSSVEYWG[NMeF]GILEWYDHCG-NH2; thioether N-18) yielded a half-life [2] greater than 72 h, a clearance [4] of 21.3 mL/min/kg and a pIC50 [1] of 7.47. The half-life [3] was greater than 72 h and the AUC at 6 h [5] was 0.786 µM·h.

In the case of `CC(C)C[C@@H]1NC(=O)[C@H](CCCNC(=N)N)NC(=O)CNC(=O)[C@H](Cc2ccccc2)N(C)C(=O)CNC(=O)[C@H](Cc2c[nH]c3ccccc23)NC(=O)[C@H](Cc2ccc(O)cc2)NC(=O)[C@H](CO)NC(=O)[C@H](C(C)C)NC(=O)[C@H](CO)NC(=O)[C@H](CCCCN)NC(=O)[C@H](Cc2ccccc2)NC(=O)CSC[C@@H](C(=O)N(C)CC(N)=O)NC(=O)[C@H](Cc2c[nH]cn2)NC(=O)[C@H](CC(N)=O)NC(=O)[C@H](Cc2ccc(O)cc2)NC(=O)[C@H](Cc2ccc(O)cc2)NC(=O)[C@H](CCCCN)NC1=O` ({CH2CO}-FKSVSYWG[NMeF]GRLKYYNHC[Sar]-NH2; thioether N-18), the half-life [2] was 4.5 h, the pIC50 [1] was 7.66 and the half-life [3] was 2.9 h.

`CC(C)C[C@@H]1NC(=O)[C@H](CC(N)=O)NC(=O)CNC(=O)[C@H](Cc2ccccc2)N(C)C(=O)CNC(=O)[C@H](Cc2c[nH]c3ccccc23)NC(=O)[C@H](Cc2ccc(O)cc2)NC(=O)[C@H](CO)NC(=O)[C@H](C(C)C)NC(=O)[C@H](CO)NC(=O)[C@H](CO)NC(=O)[C@H](Cc2ccccc2)NC(=O)CSC[C@@H](C(=O)N(C)CC(N)=O)NC(=O)[C@H](Cc2c[nH]cn2)NC(=O)[C@H](CC(N)=O)NC(=O)[C@H](Cc2ccc(O)cc2)NC(=O)[C@H](Cc2c[nH]c3ccccc23)NC(=O)[C@H](C(C)C)NC1=O` ({CH2CO}-FSSVSYWG[NMeF]GNLVWYNHC[Sar]-NH2; thioether N-18) showed a pIC50 [1] of 7.82.

With `CC[C@H](C)[C@@H]1NC(=O)CNC(=O)[C@H](Cc2ccc(O)cc2)NC(=O)[C@H](Cc2ccccc2)NC(=O)CNC(=O)[C@H](Cc2c[nH]cn2)NC(=O)[C@@H]2CCCN2C(=O)[C@H](Cc2ccc(O)cc2)NC(=O)[C@H](CC(C)C)NC(=O)[C@H](Cc2ccccc2)NC(=O)[C@H](Cc2ccccc2)NC(=O)CSC[C@@H](C(=O)NCC(N)=O)NC(=O)[C@H](C(C)C)NC1=O` ({CH2CO}-FFLYPHGFYGIVCG-NH2; thioether N-13) the pKd [6] was 8.07 and the inhibition (Homo sapiens) was “inactive”.

For `CN1CC[C@]23c4c5ccc(O)c4O[C@H]2[C@@H](O)C=C[C@H]3[C@H]1C5`, the Activity (Rattus norvegicus) was “Dose-dependent-effect”.
